According to patent US20250179047A1, “5-[7-(3,4-DIHYDRO-1H-ISOQUINOLINE-2-CARBONYL)-1,2,3,4 TETRAHYDROISOQUINOLIN-6-YL]-1H-PYRROLE-3-CARBOXAMIDE DERIVATIVES, PHARMACEUTICAL COMPOSITIONS CONTAINING THEM AND THEIR USES AS PRO-APOPTOTIC AGENTS” (LES LABORATOIRES SERVIER, priority 2022, published 2025):

What was measured:
BCL2 D111A = BCL2 D111A (Homo sapiens, UniProt P10415, D111A); test: TR-FRET competitive binding assay, BCL2 D111A; conditions: Ki determined from IC50, read-out: TR_FRET EKI_Bcl2 D111A
Summary of the method: (§1)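 Ki derived from IC50 (11-point dilution, 520/495 nm emission ratio) for displacing a fluorescein-labelled PUMA peptide (2 or 20 nM). Target was 0.5 nM E. coli-expressed Halo-tagged BCL2 (1-207) or BCLXL (2-196), terbium-labelled on Halo. Incubation 2 h at 23°C in pH 7.5 Hepes with 150 mM NaCl and 5% DMSO.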

CYP3A4 = CYP3A4 (Homo sapiens (Human), UniProt P08684); test: CYP3A4 inhibition determination in hepatic human microsomes; type: in vitro ADME; conditions: LC/MS-MS of specific metabolite
Procedure: The inhibitory potential was determined on CYP3 Å4 enzyme using hepatic human microsomes. A range of concentrations (adapted based on the solubility) of the tested compound were incubated in presence of a substrate having a specific metabolite of CYP3 Å4 enzyme.
Then, the formation of the metabolite was quantified using LC/MS-MS analysis and a curve corresponding to the concentration of the metabolite in function of the concentration of the test compound allowed to the calculation of the IC50 value.

BCL2 D103Y = BCL2 D103Y (Homo sapiens, UniProt P10415, D103Y); test: TR-FRET competitive binding assay, BCL2 D103Y; conditions: Ki determined from IC50, read-out: TR_FRET EKI_Bcl2 D103Y
Summary of the method: as §1

BCLXL WT = BCLXL WT (Homo sapiens (Human), UniProt Q07817); test: TR-FRET competitive binding assay, BCLXL WT
Summary of the method: as §1

KMS-12-PE Bcl-2 G101V = test: In vitro cytotoxicity CellTiter-Glo 48 h, KMS-12-PE Bcl-2 G101V; type: cell-based
Summary of the method: (§2)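 KMS-12-PE myeloma cells lentivirally transduced with Bcl-2 WT or G101V (TagRFP-sorted), exposed to compound 11-point dose-response for 48 h at 37 °C, 5% CO2. Viability read by CellTiter-Glo ATP luminescence; C50 is the concentration giving 50% cellular viability.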

KMS-12-PE Bcl-2 WT = test: In vitro cytotoxicity CellTiter-Glo 48 h, KMS-12-PE Bcl-2 WT; type: cell-based; conditions: C50 = concentration needed to reach 50% of the cellular viability
Summary of the method: as §2

BCL2 WT = BCL2 WT (Homo sapiens (Human), UniProt P10415); test: TR-FRET competitive binding assay, BCL2 WT; conditions: Ki determined from IC50, read-out: TR_FRET EKI_Bcl2 WT
Summary of the method: as §1

BCL2 F104I = BCL2 F104I (Homo sapiens, UniProt P10415, F104I); test: TR-FRET competitive binding assay, BCL2 F104I; conditions: Ki determined from IC50, read-out: TR_FRET EKI_Bcl2 F104I
Summary of the method: as §1

BCL2 G101V [1] = target: BCL2 G101V (Homo sapiens, UniProt P10415, G101V); test: TR-FRET competitive binding assay, BCL2 G101V; conditions: BCL2 G101V; Ki determined from IC50; read-out: TR_FRET EKI_Bcl2 G101V
Summary of the method: as §1

BCL2 G101V [2] = test: TR-FRET competitive binding assay, BCL2 G101V; parameters: species or system human; conditions: ratio Ki BCL2 G101V / Ki BCL2 WT
Summary of the method: as §1

KMS12PE = test: In vitro cytotoxicity CellTiterGlo 72 h, KMS12PE; type: cell-based; conditions: Homo sapiens, KMS-12-PE, read-out: C50 nM, KMS12PE
Procedure: (§3) KMS-12-PE (ACC 606) were purchased from the Leibniz-Institute DSMZ (Braunschweig, Germany) and were grown at 37° C. in a humidified atmosphere with 5% CO2 in media recommended by the suppliers. Lentiviral particles containing Bcl-2 wild type (also named “Bcl2 WT”), Bcl-2 mutated on G101V (also named “Bcl2 G101V”), Bcl-2 mutated on D103Y (also named “Bcl2 D103Y”), Bcl-2 mutated on D103V (also named “Bcl2 D103V”), Bcl-2 mutated on D103E (also named “Bcl2 D103E”), Bcl-2 mutated on F104I (also named “Bcl2 F104I”), Bcl-2 mutated on F104L (also named “Bcl2 F104L”), Bcl-2 mutated on D111A (also named “Bcl2 D111A”), Bcl-2 mutated on A113G (also named “Bcl2 A113G”), Bcl-2 mutated on R129L (also named “Bcl2 R129L”), Bcl-2 mutated on V156D (also named “Bcl2 V156D”) were cloned into pcLV-CMV-DEST-IRES-TagRFP. Lentiviral particles (1×10^6) were mixed with Polybrene at 8 μg/ml and transduced by spinoculation for 1 h at 32° C. and incubated overnight. After 8 days, TagRFP positive-cells were sorted by FACS. BCL2 expression was monitored by immunoblotting using anti-Flag and anti-BCL2 antibodies. Cells were seeded into 96-wells plates and treated with 1:3.16 serial dilution of compounds (9 different concentrations). Cell viability was assessed using CellTiterGlo reagent following treatment for 72 h. Results were normalized to the viability of cells without compounds (control wells). The C50 values were calculated using nonlinear regression algorithms in XCell software.

KMS12PE Bcl2 R129L = test: In vitro cytotoxicity CellTiterGlo 72 h, KMS12PE Bcl2 R129L; type: cell-based; conditions: Homo sapiens, KMS-12-PE, read-out: C50 nM, KMS12PE Bcl2 R129L
Procedure: as §3

KMS12PE Bcl2 F104L = test: In vitro cytotoxicity CellTiterGlo 72 h, KMS12PE Bcl2 F104L; type: cell-based; conditions: Homo sapiens, KMS-12-PE, read-out: C50 nM, KMS12PE Bcl2 F104L
Procedure: as §3

KMS12PE Bcl2 D111A = test: In vitro cytotoxicity CellTiterGlo 72 h, KMS12PE Bcl2 D111A; type: cell-based; conditions: Homo sapiens, KMS-12-PE, read-out: C50 nM, KMS12PE Bcl2 D111A
Procedure: as §3

KMS12PE Bcl2 V156D = test: In vitro cytotoxicity CellTiterGlo 72 h, KMS12PE Bcl2 V156D; type: cell-based; conditions: Homo sapiens, KMS-12-PE, read-out: C50 nM, KMS12PE Bcl2 V156D
Procedure: as §3

KMS12PE Bcl2 D103Y = test: In vitro cytotoxicity CellTiterGlo 72 h, KMS12PE Bcl2 D103Y; type: cell-based; conditions: Homo sapiens, KMS-12-PE, read-out: C50 nM, KMS12PE Bcl2 D103Y
Procedure: as §3

KMS12PE Bcl2 WT = test: In vitro cytotoxicity CellTiterGlo 72 h, KMS12PE Bcl2 WT; type: cell-based; conditions: Homo sapiens, KMS-12-PE, read-out: C50 nM, KMS12PE Bcl2 WT
Procedure: as §3

KMS12PE Bcl2 D103V = test: In vitro cytotoxicity CellTiterGlo 72 h, KMS12PE Bcl2 D103V; type: cell-based; conditions: Homo sapiens, KMS-12-PE, read-out: C50 nM, KMS12PE Bcl2 D103V
Procedure: as §3

KMS12PE Bcl2 G101V = test: In vitro cytotoxicity CellTiterGlo 72 h, KMS12PE Bcl2 G101V; type: cell-based; conditions: Homo sapiens, KMS-12-PE, read-out: C50 nM, KMS12PE Bcl2 G101V
Procedure: as §3

KMS12PE Bcl2 F104I = test: In vitro cytotoxicity CellTiterGlo 72 h, KMS12PE Bcl2 F104I; type: cell-based; conditions: Homo sapiens, KMS-12-PE, read-out: C50 nM, KMS12PE Bcl2 F104I
Procedure: as §3

KMS12PE Bcl2 A113G = test: In vitro cytotoxicity CellTiterGlo 72 h, KMS12PE Bcl2 A113G; type: cell-based; conditions: Homo sapiens, KMS-12-PE, read-out: C50 nM, KMS12PE Bcl2 A113G
Procedure: as §3

KMS12PE Bcl2 D103E = test: In vitro cytotoxicity CellTiterGlo 72 h, KMS12PE Bcl2 D103E; type: cell-based; conditions: Homo sapiens, KMS-12-PE, read-out: C50 nM, KMS12PE Bcl2 D103E
Procedure: as §3

Chain of BCLXL WT (Q07817 other isoform, or with tags, fused parts or gaps): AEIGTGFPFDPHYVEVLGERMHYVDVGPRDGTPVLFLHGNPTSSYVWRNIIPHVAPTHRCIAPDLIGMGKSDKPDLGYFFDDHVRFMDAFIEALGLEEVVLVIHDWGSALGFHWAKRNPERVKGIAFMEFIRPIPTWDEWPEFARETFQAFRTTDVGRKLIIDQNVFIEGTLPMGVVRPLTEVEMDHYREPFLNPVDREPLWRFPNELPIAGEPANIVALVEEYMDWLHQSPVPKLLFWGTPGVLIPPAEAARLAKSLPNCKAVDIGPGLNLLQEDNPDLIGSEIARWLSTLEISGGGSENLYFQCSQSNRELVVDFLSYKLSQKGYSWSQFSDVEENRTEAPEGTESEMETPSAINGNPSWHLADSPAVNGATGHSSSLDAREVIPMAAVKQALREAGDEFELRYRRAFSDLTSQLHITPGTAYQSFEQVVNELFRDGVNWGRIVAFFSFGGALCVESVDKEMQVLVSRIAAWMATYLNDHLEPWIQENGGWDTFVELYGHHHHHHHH
Chain of CYP3A4 (P08684 whole entry): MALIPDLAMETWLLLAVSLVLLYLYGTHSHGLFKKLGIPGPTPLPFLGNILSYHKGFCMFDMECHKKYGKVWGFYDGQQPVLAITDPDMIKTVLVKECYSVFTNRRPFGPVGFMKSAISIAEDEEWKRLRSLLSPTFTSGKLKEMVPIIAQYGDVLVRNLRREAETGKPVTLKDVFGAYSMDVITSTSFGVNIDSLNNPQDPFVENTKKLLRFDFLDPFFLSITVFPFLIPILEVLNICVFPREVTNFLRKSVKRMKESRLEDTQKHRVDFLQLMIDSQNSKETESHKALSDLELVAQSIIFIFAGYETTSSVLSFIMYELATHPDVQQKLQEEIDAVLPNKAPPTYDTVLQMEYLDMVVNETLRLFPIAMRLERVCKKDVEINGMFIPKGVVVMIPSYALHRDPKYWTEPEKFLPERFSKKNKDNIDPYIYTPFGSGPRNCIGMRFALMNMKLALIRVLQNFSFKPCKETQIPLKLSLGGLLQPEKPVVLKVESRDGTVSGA

Cc1c(N(C(=O)c2cc(-c3cc4c(cc3C(=O)N3Cc5ccccc5C[C@H]3CN3CCCCC3)CN(C(=O)Cc3ccc(OCCN5CCOC(C)C5)cc3F)CC4)n(C)c2C)c2ccc(O)cc2)cc(C#N)n1C (single isomer, unassigned) [Example 109, N-(5-cyano-1,2-dimethyl-1H-pyrrol-3-yl)-5-[2-(2-{2-fluoro-4-[2-((2R or S)-2-methylmorpholin-4-yl)ethoxy]phenyl}acetyl)-7-[(3S)-3-[(piperidin-1-yl)methyl]-1,2,3,4-tetrahydroisoquinoline-2-carbonyl]-1,2,3,4-tetrahydroisoquinolin-6-yl]-N-(4-hydroxyphenyl)-1,2-dimethyl-1H-pyrrole-3-carboxamide]
Ki (BCL2 D111A): 0.12 nM
IC50 (CYP3A4): > 5000 nM
Ki (BCL2 D103Y): 0.15 nM
Ki (BCLXL WT; BCLXL WT, Ki determined from IC50, read-out: TR_FRET EKI BclxL): 3.9 nM
TR_FRET EKI BCLxL/WT selectivty ratio (BCLXL WT; ratio Ki BCLxL / Ki BCL2 WT): 90.7
Ratio (G101V/WT) (KMS-12-PE Bcl-2 G101V; C50 KMS-12-PE Bcl-2 G101V over C50 KMS-12-PE Bcl-2 WT): 4.38
IC50 (KMS-12-PE Bcl-2 G101V; CellTiter-Glo, 48 h, C50 = concentration needed to reach 50% of the cellular viability): 0.022 µM
IC50 (KMS-12-PE Bcl-2 WT): 0.0048 µM
Ki (BCL2 WT): 0.04 nM
Ki (BCL2 F104I): 0.25 nM
Ki (BCL2 G101V [1]): 0.2 nM
TR_FRET EKI G101V/WT selectivty ratio (BCL2 G101V [2]): 5.5

CC1(C)CCC(CN2CCN(c3ccc(C(=O)NS(=O)(=O)c4ccc(NCC5CCOCC5)c([N+](=O)[O-])c4)c(Oc4cnc5[nH]ccc5c4)c3)CC2)=C(c2ccc(Cl)cc2)C1 [ABT199, Venetoclax, reference compound]
IC50 (KMS12PE): 5.5 nM
IC50 (KMS12PE Bcl2 R129L): 42.6 nM
IC50 (KMS12PE Bcl2 F104L): 1420 nM
IC50 (KMS12PE Bcl2 D111A): 22.4 nM
IC50 (KMS12PE Bcl2 V156D): 139 nM
IC50 (KMS12PE Bcl2 D103Y): 1140 nM
IC50 (KMS12PE Bcl2 WT): 30.2 nM
IC50 (KMS12PE Bcl2 D103V): 590 nM
IC50 (KMS12PE Bcl2 G101V): 1050 nM
IC50 (KMS12PE Bcl2 F104I): 1300 nM
IC50 (KMS12PE Bcl2 A113G): 120 nM
IC50 (KMS12PE Bcl2 D103E): 260 nM
